Data taken from BindingDB's records for doi:10.1124/jpet.108.143271 (Bristol-Myers Squibb, 2008).
Changes are numbered by the printed parent chain.

Legend:
[1] = biological target: T1, Peroxisome proliferator-activated receptor alpha (Homo sapiens, UniProt Q07869); test: PPAR alpha Fluorescence Polarization Assay; settings: pH 8; 22 °C
T1 sequence (Q07869 whole entry): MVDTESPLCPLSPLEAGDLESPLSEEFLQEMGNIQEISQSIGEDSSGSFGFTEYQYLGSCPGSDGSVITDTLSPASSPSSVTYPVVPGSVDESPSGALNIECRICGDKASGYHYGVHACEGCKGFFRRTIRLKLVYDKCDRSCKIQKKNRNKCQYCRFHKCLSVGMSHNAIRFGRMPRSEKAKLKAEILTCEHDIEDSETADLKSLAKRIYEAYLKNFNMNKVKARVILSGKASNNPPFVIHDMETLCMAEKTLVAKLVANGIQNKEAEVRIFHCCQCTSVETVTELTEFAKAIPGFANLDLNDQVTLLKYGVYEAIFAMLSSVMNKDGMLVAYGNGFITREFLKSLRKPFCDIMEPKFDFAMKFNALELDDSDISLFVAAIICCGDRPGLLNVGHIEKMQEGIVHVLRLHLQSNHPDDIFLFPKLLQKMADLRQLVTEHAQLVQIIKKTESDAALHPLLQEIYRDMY

[2] = biological target: T2, Peroxisome proliferator-activated receptor alpha (Rattus norvegicus, UniProt P37230)
T2 sequence (P37230 whole entry): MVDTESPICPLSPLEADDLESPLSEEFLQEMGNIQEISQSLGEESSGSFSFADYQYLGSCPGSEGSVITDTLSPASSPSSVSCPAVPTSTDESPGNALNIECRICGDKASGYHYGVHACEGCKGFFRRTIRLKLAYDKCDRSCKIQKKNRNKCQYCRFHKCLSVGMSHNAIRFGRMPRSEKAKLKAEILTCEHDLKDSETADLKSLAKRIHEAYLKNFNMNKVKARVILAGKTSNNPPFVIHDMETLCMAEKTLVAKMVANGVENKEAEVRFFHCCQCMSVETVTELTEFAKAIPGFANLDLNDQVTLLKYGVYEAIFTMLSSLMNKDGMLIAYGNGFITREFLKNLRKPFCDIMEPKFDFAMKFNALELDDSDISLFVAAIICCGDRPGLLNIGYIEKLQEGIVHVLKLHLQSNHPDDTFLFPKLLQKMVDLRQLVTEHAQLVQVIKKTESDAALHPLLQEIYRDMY

[3] = biological target: T3, Peroxisome proliferator-activated receptor alpha (Mus musculus, UniProt P23204)
T3 sequence (P23204 whole entry): T2 sequence (P37230 whole entry) with L41I, S50G, A85V, V86I, T88A, N96S, A135V, A207G, N265D

[4] = biological target: T4, Peroxisome proliferator-activated receptor alpha (Mesocricetus auratus, UniProt Q7TNH1)
T4 sequence (Q7TNH1 whole entry): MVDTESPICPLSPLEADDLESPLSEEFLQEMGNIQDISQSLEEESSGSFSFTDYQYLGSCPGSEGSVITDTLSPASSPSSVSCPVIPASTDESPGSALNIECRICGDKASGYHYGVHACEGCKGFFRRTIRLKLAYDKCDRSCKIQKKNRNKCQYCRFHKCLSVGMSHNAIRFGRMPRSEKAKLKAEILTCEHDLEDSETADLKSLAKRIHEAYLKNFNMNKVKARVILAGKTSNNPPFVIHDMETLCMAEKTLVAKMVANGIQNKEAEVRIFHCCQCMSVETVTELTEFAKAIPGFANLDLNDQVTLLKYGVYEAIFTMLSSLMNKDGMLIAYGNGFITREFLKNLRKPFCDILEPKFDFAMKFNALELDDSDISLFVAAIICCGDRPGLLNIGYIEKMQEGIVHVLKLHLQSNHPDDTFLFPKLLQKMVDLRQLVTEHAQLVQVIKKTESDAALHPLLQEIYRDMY

[5] = biological target: T5, Peroxisome proliferator-activated receptor delta (Homo sapiens, UniProt Q03181)
T5 sequence (Q03181 whole entry): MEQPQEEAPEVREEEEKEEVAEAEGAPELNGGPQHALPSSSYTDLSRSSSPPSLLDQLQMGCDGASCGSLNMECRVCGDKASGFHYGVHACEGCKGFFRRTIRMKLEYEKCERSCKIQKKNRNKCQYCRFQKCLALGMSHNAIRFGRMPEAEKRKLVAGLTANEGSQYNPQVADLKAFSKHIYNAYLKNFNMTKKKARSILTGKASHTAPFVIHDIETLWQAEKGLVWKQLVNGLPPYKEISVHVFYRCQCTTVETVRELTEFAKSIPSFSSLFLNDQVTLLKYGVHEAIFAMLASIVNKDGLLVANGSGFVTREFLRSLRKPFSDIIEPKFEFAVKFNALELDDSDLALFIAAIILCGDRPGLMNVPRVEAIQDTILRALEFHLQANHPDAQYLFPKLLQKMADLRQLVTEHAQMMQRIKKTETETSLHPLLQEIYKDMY

[6] = biological target: T6, Peroxisome proliferator-activated receptor gamma (Homo sapiens, UniProt P37231); test: PPAR gamma Fluorescence Polarization Assay; settings: pH 8; 22 °C
T6 sequence (P37231 whole entry): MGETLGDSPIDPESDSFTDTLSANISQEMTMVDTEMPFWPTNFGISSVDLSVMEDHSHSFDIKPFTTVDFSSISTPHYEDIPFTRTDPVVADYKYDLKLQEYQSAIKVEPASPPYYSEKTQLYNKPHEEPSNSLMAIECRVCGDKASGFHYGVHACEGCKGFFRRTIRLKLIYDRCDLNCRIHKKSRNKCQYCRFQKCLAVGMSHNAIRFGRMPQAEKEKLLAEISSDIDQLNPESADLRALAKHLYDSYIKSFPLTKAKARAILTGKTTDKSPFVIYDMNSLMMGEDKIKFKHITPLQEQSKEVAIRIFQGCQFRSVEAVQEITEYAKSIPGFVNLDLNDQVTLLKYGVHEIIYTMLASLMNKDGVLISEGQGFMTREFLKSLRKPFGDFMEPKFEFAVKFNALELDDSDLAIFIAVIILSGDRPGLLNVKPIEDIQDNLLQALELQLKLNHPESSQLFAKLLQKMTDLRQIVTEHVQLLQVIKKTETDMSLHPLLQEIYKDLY

Row | EC50 [1] | IC50 [1] | EC50 [2] | EC50 [3] | EC50 [4] | EC50 [5] | IC50 [6] | Compound
1 | 11.6 µM | > 98.4 µM | 17.7 µM | 18.5 µM | 28.7 µM | – | – | CC(Oc1ccc(Oc2ccc(Cl)cc2)cc1)C(=O)O (configuration not stated) [Clofop]
2 | – | – | 0.317 µM | – | – | – | – | COC(=O)N(CC(=O)O)Cc1cccc(OCc2nc(-c3ccc(Cl)cc3)oc2C)c1 [2-{[(3-{[2-(4-chlorophenyl)-5-methyl-1,3-oxazol-4-yl]methoxy}phenyl)methyl](methoxycarbonyl)amino}acetic acid]
3 | – | 0.097 µM | 0.123 µM | 0.145 µM | 0.178 µM | > 25 µM | > 15 µM | COC(=O)N(CC(=O)O)Cc1cc(OCc2nc(-c3ccc(Cl)cc3)oc2C)ccc1F [2-{[(5-{[2-(4-chlorophenyl)-5-methyl-1,3-oxazol-4-yl]methoxy}-2-fluorophenyl)methyl](methoxycarbonyl)amino}acetic acid]
